Data as given in patent US10201528B2, “Method of treating multiple sclerosis” (Assistance Publique Hopitaux De Paris, priority 2012, dated 2019).
“Also recorded” adds a separate entry of the source.

Key:
[1] = test system: patients with a progressive form of multiple sclerosis; assay: Clinical cases: patients with progressive multiple sclerosis treated with biotin; type: in vivo, human
Protocol: Three patients with a progressive form of multiple sclerosis received biotin. […]
A person, without any particular personal history. […] Treatment with interferon Ib (betaferon) began in February 2008.
Three Solumedrol infusions were carried out in September 2010 and then 4 infusions between 8 and 11 Aug.
Treatment with biotin was then introduced on 6 Mar. 2012 at the dose of 100 mg/day until March 30 and then 200 mg/day from April 6 to 6 May 2012 then 300 mg/day from 6 May 2012 to 7 Jun. 2012. Two complete ophthalmological examinations were carried out during this period of time: a first on 30 Mar. […]

[2] = test system: multiple sclerosis; details: attacks less numerous and less severe, improvement of lesions visible by MRI; cited from earlier work
[3] = patient 1, after six months of treatment
[4] = patient 1, biotin 100 mg three times a day, three months

Molecule: C[C@H]1C[C@@H]2[C@H]([C@@H](O)C[C@@]3(C)[C@H]2CC[C@]3(O)C(=O)COC(=O)CCC(=O)O)[C@@]2(C)C=CC(=O)C=C12 [Solumedrol]
- diplopia-type attack ([1]; patient 2, July 2008, infusions): regressive
- progressive decrease in visual acuity ([1]; patient 2, three infusions September 2010 and 4 infusions 8-11 Aug. 2011, before biotin): without any effect
- evolvement of left homonymous lateral hemianopsia ([1]; patient 3, 2004, after 3 infusions, symptomology subsequently reappeared): initially been favourable

Molecule: O=C(O)CCCC[C@@H]1SC[C@@H]2NC(=O)N[C@@H]21 [biotin]
- brain MRI spectro: choline peak and choline/creatine ratio [1, 3]: clear decrease
- visual evoked potentials: P100 wave on the right [1, 3]: beginnings of a P100 wave on the right
- visual evoked potentials: latency of left P100 wave ([1]; patient 1, biotin 100 mg three times a day, after six months of treatment): 111.8 ms
- MRI and brain MRI spectro [1, 4]: unchanged
- balance [1, 4]: more assured
- visual evoked potentials: P100 wave on the left [1, 4]: reappearance of a P100 wave on the left
- visual evoked potentials: P100 wave on the right [1, 4]: no response was noted on the right
- visual evoked potentials: latency of left P100 wave [1, 4]: 126.5 ms
- visual acuity on the left ([1]; patient 1, biotin 100 mg three times a day, three months later (before treatment 2/10 on the left)): 2/10
- visual acuity on the right ([1]; patient 1, biotin 100 mg three times a day, three months later (before treatment could only count fingers on the right)): 5/10
- visual evoked potentials: P100 wave ([1]; patient 1, biotin increased to 600 mg/day, after nine months of treatment): bilateral P100 wave was noted
- motor problems ([1]; patient 1, discussion): corrected and were stabilized
- balance between beginning of treatment and last visit ([1]; patient 1, long-term treatment): also remained stable
- visual acuity between beginning of treatment and last visit ([1]; patient 1, long-term, 300 mg/day for 15 months then 100 mg/day for 9 months): remained stable
- visual acuity compared with examination before treatment ([1]; patient 2, biotin 100 mg/day from 6 Mar. 2012, examination 30 Mar. 2012): no improvement
- visual field (automated campimetry): homonymous lateral hemianopsia ([1]; patient 3, biotin 100 mg/day begun 12 Apr. 2012, examination 30 Jun. 2012): improvement in the visual field in the upper left quadrant; also recorded: clear improvement
- time to improvement after introduction of the treatment ([1]; the three patients): within three months

Molecule: glatiramer acetate
- efficacy in multiple sclerosis [2]: proven to be effective
